In patent publication US12357711B2, “PSMA binding dual mode radiotracer and therapeutic” (Technische Universität München, priority 2019, dated 2025):

System: SCID mice
Experiment: Preclinical dosimetry from biodistribution in mice, extrapolated to 70-kg Standard Adult (OLINDA/EXM 1.0)
Assay type: in vivo
Details: 1.0 h bladder voiding interval
Experimental: 3-5 mice were injected per timepoint with a mean 25.6±3.6 MBq of 18F-rhPSMA-7 and 28.5±4.8 MBq of 18F-rhPSMA-7.3, respectively. Mice, severe combined immunodeficiency (SCID) were used for the experiments.
Mice were sacrificed at the following timepoints: • ^18F-rhPSMA-7: 10, 20, 40, 60, 120 and 180 minutes after administration. • ^18F-rhPSMA-7.3: 10, 60, 120, 180 and 300 minutes after administration.
Urine, blood, heart, lung, spleen, pancreas, liver, stomach (emptied), small intestine (emptied), large intestine (emptied), kidneys, bladder, testis, fat, muscle (partial, femoral), femur, tail and brain. Urine was collected with a pipette in the CO2 gas chamber. In case of missing urination in the chamber the bladder was aspirated with an insulin syringe. Blood was withdrawn instantly after sacrifice with an insulin syringe from the heart. All other tissues and organs were dissected and transferred directly in plastic containers.
The counting rates of measurement samples were automatically corrected for decay. The radioactivity distribution ratios (unit: percentage of the injected dose (% ID) in the measurement samples were determined using the equation below. The sum of the counting rates from all measurement samples obtained from one mouse was designated as the counting rate for administrated radioactivity.
The radioactivity distribution ratio per unit weight of the measurement sample (unit: % ID/g) excluding urine and feces samples was determined by using the equation below. The weight of the measurement sample was determined by subtraction of the empty measurement container from the container including the sample.
For consistency of statistical calculations for each radiotracer the same number of time-points for ^18F-rhPSMA-7 and ^18F-rhPSMA-7.3 was used. Therefore, for ^18F-rhPSMA-7 the 10 min and 20 min time points were combined creating a 15 min endpoint.
The time-integral of activity for the accumulation in the significant source organs (AUCs) were generated both with numerical integration and physical decay according to J Juan et al., Journal of Pharmaceutical Sciences, 1993, 82:762-763.
In brief, to calculate a human dosimetry from the biodistribution in the mice, an extrapolation was necessary to account for the differences between the animals and humans. Normal-organ radiation doses were estimated for the 70-kg Standard Adult anatomic model using time-depending organ activity concentrations (in percent of the injected dose per gram, % ID/g) and total-body activities measured in the biodistribution studies in mice.
Tissue activity concentrations in mice were converted to tissue fractional activities in the 70-kg Standard Adult using the relative fractional organ masses in the Standard Adult and the “standard” 25-gramm mouse. Time-dependent total-body activity was fit to an exponential function and the difference between the injected activity and the total-body activity was assumed to be excreted to the urine because activity concentrations in the liver and GI tracer were low at all time points studied.
Organ residence time was calculated by numerical integration using the trapezoidal rule and the rest-of-body ^18F residence times was calculated as the difference between the total-body residence time and the sum of the organ and urine residence times. The bladder contents residence time was estimated using the dynamic voiding model in the OLINDA/EXM 1.0 dosimetry software. Finally, the Standard Adult mean organ dose equivalents (in mSv/MBq) and effective dose (also in mSv/MBq) were then calculated using OLIN DA/EXM 1.0.
Final calculation of radiation absorbed dose and dosimetry from biodistribution in mice: The tissues or organs in which a significant accumulation of radioactivity occurs (i.e., source organ) were kidney, spleen, lung, liver and heart. With respect to activity accumulation and clearance, a rapid clearance from blood and clearance to urine but relatively slow build-up in kidney was found.

`CC(C)(C)[Si](F)(c1ccc(C(=O)NC[C@@H](NC(=O)CC[C@@H](C(=O)O)N2CCN(CC(=O)[O-])CCN(CC(=O)[O-])CCN(CC(=O)[O-])CC2)C(=O)N[C@H](CCCCNC(=O)CCC(=O)NCCC[C@@H](NC(=O)CC[C@H](NC(=O)N[C@@H](CCC(=O)O)C(=O)O)C(=O)O)C(=O)O)C(=O)O)cc1)C(C)(C)C.[Ga+3]` [rhPSMA7.3, [^19F][^natGa]D-Dap-S-DOTAGA-rhPSMA7] was tested, and the “Adrenals ED Cont.” value was 5.46E−05 mSv/MBq, the “Adrenals EDE Cont.” value was 0.00E000 mSv/MBq and the “Adrenals dose Alpha” value was 0.00E000 mSv/MBq. The “Adrenals dose Beta” value was 3.12E−03 mSv/MBq, the “Adrenals dose Photon” value was 7.79E−03 mSv/MBq and the “Adrenals dose Total” value was 1.09E−02 mSv/MBq. The “Brain ED Cont.” value was 3.59E−05 mSv/MBq, the “Brain EDE Cont.” value was 0.00E000 mSv/MBq and the “Brain dose Alpha” value was 0.00E000 mSv/MBq. For the same molecule, the “Brain dose Beta” value was 3.12E−03 mSv/MBq, the “Brain dose Photon” value was 4.06E−03 mSv/MBq and the “Brain dose Total” value was 7.18E−03 mSv/MBq. The “Breasts ED Cont.” value was 3.32E−04 mSv/MBq, the “Breasts EDE Cont.” value was 9.97E−04 mSv/MBq and the “Breasts dose Alpha” value was 0.00E000 mSv/MBq. For the same molecule, the “Breasts dose Beta” value was 3.12E−03 mSv/MBq, the “Breasts dose Photon” value was 3.53E−03 mSv/MBq and the “Breasts dose Total” value was 6.65E−03 mSv/MBq. For the same molecule, the “Gallbladder Wall ED Cont.” value was 0.00E000 mSv/MBq, the “Gallbladder Wall EDE Cont.” value was 0.00E000 mSv/MBq and the “Gallbladder Wall dose Alpha” value was 0.00E000 mSv/MBq. The “Gallbladder Wall dose Beta” value was 3.12E−03 mSv/MBq, the “Gallbladder Wall dose Photon” value was 7.11E−03 mSv/MBq and the “Gallbladder Wall dose Total” value was 1.02E−02 mSv/MBq. The “Heart Wall ED Cont.” value was 0.00E000 mSv/MBq, the “Heart Wall EDE Cont.” value was 0.00E000 mSv/MBq and the “Heart Wall dose Alpha” value was 0.00E000 mSv/MBq. For the same molecule, the “Heart Wall dose Beta” value was 1.32E−03 mSv/MBq, the “Heart Wall dose Photon” value was 5.36E−03 mSv/MBq and the “Heart Wall dose Total” value was 6.68E−03 mSv/MBq. The “Kidneys ED Cont.” value was 3.58E−04 mSv/MBq, the “Kidneys EDE Cont.” value was 4.29E−03 mSv/MBq and the “Kidneys dose Alpha” value was 0.00E000 mSv/MBq. For the same molecule, the “Kidneys dose Beta” value was 5.11E−02 mSv/MBq, the “Kidneys dose Photon” value was 2.04E−02 mSv/MBq and the “Kidneys dose Total” value was 7.16E−02 mSv/MBq. The “LLI Wall ED Cont.” value was 1.39E−03 mSv/MBq, the “LLI Wall EDE Cont.” value was 6.94E−04 mSv/MBq and the “LLI Wall dose Alpha” value was 0.00E000 mSv/MBq. For the same molecule, the “LLI Wall dose Beta” value was 3.12E−03 mSv/MBq, the “LLI Wall dose Photon” value was 8.45E−03 mSv/MBq and the “LLI Wall dose Total” value was 1.16E−02 mSv/MBq. The “Liver ED Cont.” value was 2.92E−04 mSv/MBq, the “Liver EDE Cont.” value was 0.00E000 mSv/MBq and the “Liver dose Alpha” value was 0.00E000 mSv/MBq. The “Liver dose Beta” value was 9.70E−04 mSv/MBq, the “Liver dose Photon” value was 4.87E−03 mSv/MBq and the “Liver dose Total” value was 5.84E−03 mSv/MBq. The “Lungs ED Cont.” value was 7.90E−04 mSv/MBq, the “Lungs EDE Cont.” value was 7.90E−04 mSv/MBq and the “Lungs dose Alpha” value was 0.00E000 mSv/MBq. For the same molecule, the “Lungs dose Beta” value was 1.95E−03 mSv/MBq, the “Lungs dose Photon” value was 4.63E−03 mSv/MBq and the “Lungs dose Total” value was 6.58E−03 mSv/MBq. The “Muscle ED Cont.” value was 4.30E−05 mSv/MBq, the “Muscle EDE Cont.” value was 0.00E000 mSv/MBq and the “Muscle dose Alpha” value was 0.00E000 mSv/MBq. For the same molecule, the “Muscle dose Beta” value was 3.12E−03 mSv/MBq, the “Muscle dose Photon” value was 5.47E−03 mSv/MBq and the “Muscle dose Total” value was 8.59E−03 mSv/MBq. The “Osteogenic Cells ED Cont.” value was 1.28E−04 mSv/MBq, the “Osteogenic Cells EDE Cont.” value was 3.84E−04 mSv/MBq and the “Osteogenic Cells dose Alpha” value was 0.00E000 mSv/MBq. For the same molecule, the “Osteogenic Cells dose Beta” value was 6.70E−03 mSv/MBq, the “Osteogenic Cells dose Photon” value was 6.11E−03 mSv/MBq and the “Osteogenic Cells dose Total” value was 1.28E−02 mSv/MBq. For the same molecule, the “Ovaries ED Cont.” value was 2.35E−03 mSv/MBq, the “Ovaries EDE Cont.” value was 2.93E−03 mSv/MBq and the “Ovaries dose Alpha” value was 0.00E000 mSv/MBq. The “Ovaries dose Beta” value was 3.12E−03 mSv/MBq, the “Ovaries dose Photon” value was 8.61E−03 mSv/MBq and the “Ovaries dose Total” value was 1.17E−02 mSv/MBq. For the same molecule, the “Pancreas ED Cont.” value was 5.62E−05 mSv/MBq, the “Pancreas EDE Cont.” value was 0.00E000 mSv/MBq and the “Pancreas dose Alpha” value was 0.00E000 mSv/MBq. The “Pancreas dose Beta” value was 3.12E−03 mSv/MBq, the “Pancreas dose Photon” value was 8.12E−03 mSv/MBq and the “Pancreas dose Total” value was 1.12E−02 mSv/MBq. For the same molecule, the “Red Marrow ED Cont.” value was 9.97E−04 mSv/MBq, the “Red Marrow EDE Cont.” value was 9.97E−04 mSv/MBq and the “Red Marrow dose Alpha” value was 0.00E000 mSv/MBq. The “Red Marrow dose Beta” value was 2.22E−03 mSv/MBq, the “Red Marrow dose Photon” value was 6.09E−03 mSv/MBq and the “Red Marrow dose Total” value was 8.31E−03 mSv/MBq. For the same molecule, the “Skin ED Cont.” value was 6.57E−05 mSv/MBq, the “Skin EDE Cont.” value was 0.00E000 mSv/MBq and the “Skin dose Alpha” value was 0.00E000 mSv/MBq. For the same molecule, the “Skin dose Beta” value was 3.12E−03 mSv/MBq, the “Skin dose Photon” value was 3.45E−03 mSv/MBq and the “Skin dose Total” value was 6.57E−03 mSv/MBq. For the same molecule, the “Small Intestine ED Cont.” value was 5.45E−05 mSv/MBq, the “Small Intestine EDE Cont.” value was 0.00E000 mSv/MBq and the “Small Intestine dose Alpha” value was 0.00E000 mSv/MBq. The “Small Intestine dose Beta” value was 3.12E−03 mSv/MBq, the “Small Intestine dose Photon” value was 7.78E−03 mSv/MBq and the “Small Intestine dose Total” value was 1.09E−02 mSv/MBq. The “Spleen ED Cont.” value was 1.33E−04 mSv/MBq, the “Spleen EDE Cont.” value was 1.59E−03 mSv/MBq and the “Spleen dose Alpha” value was 0.00E000 mSv/MBq. For the same molecule, the “Spleen dose Beta” value was 1.52E−02 mSv/MBq, the “Spleen dose Photon” value was 1.14E−02 mSv/MBq and the “Spleen dose Total” value was 2.66E−02 mSv/MBq. The “Stomach Wall ED Cont.” value was 1.19E−03 mSv/MBq, the “Stomach Wall EDE Cont.” value was 0.00E000 mSv/MBq and the “Stomach Wall dose Alpha” value was 0.00E000 mSv/MBq. The “Stomach Wall dose Beta” value was 3.12E−03 mSv/MBq, the “Stomach Wall dose Photon” value was 6.80E−03 mSv/MBq and the “Stomach Wall dose Total” value was 9.92E−03 mSv/MBq. The “Testes ED Cont.” value was 0.00E000 mSv/MBq, the “Testes EDE Cont.” value was 0.00E000 mSv/MBq and the “Testes dose Alpha” value was 0.00E000 mSv/MBq. The “Testes dose Beta” value was 3.12E−03 mSv/MBq, the “Testes dose Photon” value was 6.08E−03 mSv/MBq and the “Testes dose Total” value was 9.20E−03 mSv/MBq. The “Thymus ED Cont.” value was 4.09E−05 mSv/MBq, the “Thymus EDE Cont.” value was 0.00E000 mSv/MBq and the “Thymus dose Alpha” value was 0.00E000 mSv/MBq. For the same molecule, the “Thymus dose Beta” value was 3.12E−03 mSv/MBq, the “Thymus dose Photon” value was 5.06E−03 mSv/MBq and the “Thymus dose Total” value was 8.18E−03 mSv/MBq. The “Thyroid ED Cont.” value was 4.13E−04 mSv/MBq, the “Thyroid EDE Cont.” value was 2.48E−04 mSv/MBq and the “Thyroid dose Alpha” value was 0.00E000 mSv/MBq. The “Thyroid dose Beta” value was 3.12E−03 mSv/MBq, the “Thyroid dose Photon” value was 5.15E−03 mSv/MBq and the “Thyroid dose Total” value was 8.27E−03 mSv/MBq. For the same molecule, the “Total Body ED Cont.” value was 0.00E000 mSv/MBq, the “Total Body EDE Cont.” value was 0.00E000 mSv/MBq and the “Total Body dose Alpha” value was 0.00E000 mSv/MBq. For the same molecule, the “Total Body dose Beta” value was 3.45E−03 mSv/MBq, the “Total Body dose Photon” value was 5.42E−03 mSv/MBq and the “Total Body dose Total” value was 8.87E−03 mSv/MBq. The “ULI Wall ED Cont.” value was 5.23E−05 mSv/MBq, the “ULI Wall EDE Cont.” value was 0.00E000 mSv/MBq and the “ULI Wall dose Alpha” value was 0.00E000 mSv/MBq. The “ULI Wall dose Beta” value was 3.12E−03 mSv/MBq, the “ULI Wall dose Photon” value was 7.33E−03 mSv/MBq and the “ULI Wall dose Total” value was 1.05E−02 mSv/MBq. For the same molecule, the “Urinary Bladder Wall ED Cont.” value was 3.92E−03 mSv/MBq, the “Urinary Bladder Wall EDE Cont.” value was 4.70E−03 mSv/MBq and the “Urinary Bladder Wall dose Alpha” value was 0.00E000 mSv/MBq. The “Urinary Bladder Wall dose Beta” value was 5.18E−02 mSv/MBq, the “Urinary Bladder Wall dose Photon” value was 2.66E−02 mSv/MBq and the “Urinary Bladder Wall dose Total” value was 7.84E−02 mSv/MBq. The “Uterus ED Cont.” value was 7.13E−05 mSv/MBq, the “Uterus EDE Cont.” value was 8.55E−04 mSv/MBq and the “Uterus dose Alpha” value was 0.00E000 mSv/MBq. The “Uterus dose Beta” value was 3.12E−03 mSv/MBq, the “Uterus dose Photon” value was 1.11E−02 mSv/MBq and the “Uterus dose Total” value was 1.43E−02 mSv/MBq.
